Laboratory results from patent US12139508B2, “Steroid derivative regulators, method for preparing the same, and uses thereof” (JIANGSU HANSOH PHARMACEUTICAL GROUP CO., LTD., priority 2018, dated 2024).
Where two headings read alike, the source gives them in different places.

What was measured:
[1] = Pharmacokinetic assay in Balb/c mice (plasma and brain tissue); assay type: in vivo; details: mouse, po, 5 mg/kg p.o., male Balb/c mice; for AUC(0-t): read-out: Area under curve AUC0-t; for AUC(0-inf): read-out: Area under curve AUC0-∞; for half-life: read-out: Half-life t1/2 (converted); for MRT: read-out: Mean residence time MRT; for Tmax: read-out: Peak time tmax; for Cmax: read-out: Plasma concentration Cmax
Method in brief: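 Compound levels in plasma and brain were measured by LC/MS/MS with an internal standard after protein precipitation with acetonitrile. Samples came from overnight-fasted male Balb/c mice given 5 mg/kg p.o., with cardiac blood drawn at 0–24 h. Pharmacokinetic parameters were then calculated.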

forced-swimming mice = experiment: In vivo pharmacodynamic test in the forced swimming model in mice; details: ICR mice; for Mean (immobility, %): 100*floating time/240 s; for Immobility time during the latter four minutes compared with that of the model group: forced swimming
Protocol: The antidepressant effect of the compound was evaluated by the forced swimming model in mice.
Male ICR mice (25-35 g) were adapted in the test environment for 3 days before the forced swimming test.
According to the test design, the mice were randomly grouped on the day before the test according to body weight, with 12 mice in each group. Before the test, the compounds of each example were administered intragastrically according to the Tmax thereof in the brain in mice pharmacokinetic test as follows: • 1) Model group (0.5% CMC-Na-1% Tween 80 solution, p.o., 10 mL/kg); • 2) Compounds of Example 2, Example 3, Example 5, Example 6, Example 9, Examples 59-63, Examples 71-73, Example 103, Example 135, Example 137, Example 145 and Example 146 (10 mg/kg, p.o., 10 mL/kg); Example 13 and Example 74 (5 mg/kg, p.o., 5 mL/kg).
When being administered, the compounds of each example were suspended in 0.5% CMC-Na+1% Tween 80 solution to the desired concentration.
0.5-1 hour after administration, ICR mice were placed in a forced swimming device (transparent glass drum (water depth 18 cm, water temperature 25-26° C.), one mouse per tank) and forced to swim for 6 minutes. The forced swimming device recorded the floating time of the ICR mice during the entire 6 minutes, and the data of the latter four minutes were used for data analysis. The mice were taken out immediately after the swimming test, wiped dry and put back in their original cages.
Note: The criterion for determining the immobility time is that the mouse stops struggling in water and floats, and there are only slight limb movements to keep the head floating on the water.
3.4 Data Analysis Floating time percentage=100*floating time/240 s.

| SMILES | AUC(0-t) ([1]; brain tissue) [ng·h/mL] | AUC(0-inf) ([1]; brain tissue) [ng·h/mL] | half-life ([1]; brain tissue) [h] | MRT ([1]; brain tissue) [h] | Tmax ([1]; brain tissue) [h] | Cmax ([1]; brain tissue) [ng/mL] | AUC(0-t) ([1]; plasma) [ng·h/mL] | AUC(0-inf) ([1]; plasma) [ng·h/mL] | half-life ([1]; plasma) [h] | MRT ([1]; plasma) [h] | Tmax ([1]; plasma) [h] | Cmax ([1]; plasma) [ng/mL] | Mean (immobility, %) (forced-swimming mice; dose 10 mpk p.o.) [%] | Mean (immobility, s) (forced-swimming mice; dose 10 mpk p.o., latter four minutes of 6 min swim) [s] | Immobility time during the latter four minutes compared with that of the model group (forced-swimming mice) | Mean (immobility, %) (forced-swimming mice; dose 5 mpk p.o.) [%] |
| --- | --- | --- | --- | --- | --- | --- | --- | --- | --- | --- | --- | --- | --- | --- | --- | --- |
| C[C@@]1(O)CC[C@H]2[C@H](CC[C@@H]3[C@@H]2CC[C@@]2(C)[C@H]3[C@@H]3C[C@@H]3[C@@H]2C(=O)Cn2cc(C#N)cn2)C1 [Example 2, 1-(2-((2R,4aS,4bR,6aS,7S,7aS,8aR,8bR,8cR,10aR)-2-hydroxy-2,6a-dimethyloctadecahydrocyclopropa[4,5]cyclopenta[1,2-a]phenanthren-7-yl)-2-oxoethyl)-1H-pyrazole-4-carbonitrile] | 840 | 913 | 2.84 | 2.39 | 0.5 | 637 | 1360 | 1370 | 0.54 | 1.21 | 0.5 | 1100 | 54.26 | – | – | – |
| C[C@@]1(O)CC[C@H]2[C@H](CC[C@@H]3[C@@H]2CC[C@@]2(C)[C@H]3[C@@H]3C[C@@H]3[C@@H]2C(=O)Cn2ccc(C#N)n2)C1 [Example 3, 1-(2-((2R,4aS,4bR,6aS,7S,7aS,8aR,8bR,8cR,10aR)-2-hydroxy-2,6a-dimethyloctadecahydrocyclopropa[4,5]cyclopenta[1,2-a]phenanthren-7-yl)-2-oxoethyl)-1H-pyrazole-3-carbonitrile] | 719 | 722 | 0.5 | 1.1 | 0.5 | 690 | 570 | 574 | 0.5 | 1.01 | 0.5 | 673 | 28.50 | 68.39 | significantly different | – |
| C[C@@]1(O)CC[C@H]2[C@H](CC[C@@H]3[C@@H]2CC[C@@]2(C)[C@H]3[C@@H]3C[C@@H]3[C@@H]2C(=O)Cn2cc(C(F)(F)F)cn2)C1 [Example 5, 1-((2R,4aS,4bR,6aS,7S,7aS,8aR,8bR,8cR,10aR)-2-Hydroxy-2,6a-dimethyloctadecahydrocyclopropa[4,5]cyclopenta[1,2-a]phenanthren-7-yl)-2-(4-(trifluoromethyl)-1H-pyrazol-1-yl)ethan-1-one] | 2300 | 3070 | 4.72 | 5.53 | 0.5 | 1410 | 1240 | 1250 | 5.12 | 4.8 | 0.5 | 461 | 59.93 | – | – | – |
| C[C@@H]1C[C@H](C(=O)Cn2cc(C#N)cn2)[C@@]2(C)CC[C@H]3[C@@H](CC[C@@H]4C[C@](C)(O)CC[C@@H]43)[C@H]12 [Example 13, 1-(2-((3R,5R,8R,9R,10S,13S,14S,15R)-3-Hydroxy-3,13,15-trimethylhexadecahydro-1H-cyclopenta[a]phenanthren-17-yl)-2-oxoethyl)-1H-pyrazole-4-carbonitrile] | 4730 | 4740 | 2.5 | 3.9 | 1 | 1060 | 5060 | 5070 | 2.5 | 3.6 | 1 | 1210 | – | – | – | 57.60 |
| C[C@@H]1C[C@H](C(=O)Cn2ccc(C#N)n2)[C@@]2(C)CC[C@H]3[C@@H](CC[C@@H]4C[C@](C)(O)CC[C@@H]43)[C@H]12 [Example 60, 1-(2-((3R,5R,8R,9R,10S,13S,14S,15R,17S)-3-Hydroxy-3,13,15-trimethylhexadecahydro-1H-cyclopenta[a]phenanthren-17-yl)-2-oxoethyl)-1H-pyrazole-3-carbonitrile] | 2400 | 2500 | 2.37 | 2.35 | 1 | 998 | 1700 | 1770 | 1.64 | 1.43 | 0.5 | 720 | 35.30 | – | significantly different | – |
| C[C@@]1(O)CC[C@H]2[C@H](CC[C@@H]3[C@@H]2CC[C@]2(C)C(C(=O)Cn4cc(C#N)cn4)C[C@@H](C4CC4)[C@@H]32)C1 (stereo partly drawn) [Example 71, 1-(2-((3R,5R,8R,9R,10S,13S,14S,15S)-15-Cyclopropyl-3-hydroxy-3,13-dimethylhexadecahydro-1H-cyclopenta[a]phenanthren-17-yl)-2-oxoethyl)-1H-pyrazole-4-carbonitrile] | 1130 | 1280 | 2 | 3.66 | 1 | 383 | 1580 | 1760 | 2.04 | 3.5 | 1 | 508 | 55.92 | – | – | – |
| CC[C@@H]1C[C@H](C(=O)Cn2ccc(C#N)n2)[C@@]2(C)CC[C@H]3[C@@H](CC[C@@H]4C[C@](C)(O)CC[C@@H]43)[C@H]12 [Example 137, 1-(2-((3R,5R,8R,9R,10S,13S,14S,15R,17S)-15-Ethyl-3-hydroxy-3,13-dimethylhexadecahydro-1H-cyclopenta[a]phenanthren-17-yl)-2-oxoethyl)-1H-pyrazole-3-carbonitrile] | 2130 | 3160 | 6.02 | 7.58 | 1 | 613 | 2780 | 3790 | 3.85 | 5.88 | 1 | 763 | 36.92 | – | significantly different | – |
| C[C@@]1(O)CC[C@H]2[C@H](CC[C@@H]3[C@@H]2CC[C@@]2(C)[C@H]3[C@H](C3CC3)C[C@@H]2C(=O)Cn2ccnn2)C1 [Example 145, 1-((3R,5R,8R,9R,10S,13S,14S,15S,17S)-15-Cyclopropyl-3-hydroxy-3,13-dimethylhexadecahydro-1H-cyclopenta[a]phenanthren-17-yl)-2-(1H-1,2,3-triazol-1-yl)ethan-1-one] | 4820 | 5270 | 2.09 | 3.4 | 1 | 1480 | 13400 | 13400 | 1.75 | 3.47 | 1 | 2990 | – | – | – | 30.72 |
| C[C@@]1(O)CC[C@H]2[C@H](CC[C@@H]3[C@@H]2CC[C@@]2(C)[C@H]3[C@H](C3CC3)C[C@@H]2C(=O)Cn2ncnn2)C1 [Example 146, 1-((3R,5R,8R,9R,10S,13S,14S,15S,17S)-15-Cyclopropyl-3-hydroxy-3,13-dimethylhexadecahydro-1H-cyclopenta[a]phenanthren-17-yl)-2-(2H-tetrazol-2-yl)ethan-1-one] | 8680 | 12500 | 4.66 | 6.73 | 1 | 1970 | 7790 | 8000 | 1.45 | 2.97 | 1 | 2090 | – | – | significantly different | 33.54 |
